Series [1] concerns Mycobacterium tuberculosis. The experiment in a line: Antitubercular activity against Mycobacterium tuberculosis H37Rv ATCC 27294 after 11 days by serial dilution method. The series is classed as functional. The following applies: H37Rv ATCC 27294, 264 h.
A short description of series [2]: Cytotoxicity against human L02 cells assessed as inhibitory ratio at 100 uM after 48 hrs by MTT assay. The series is classed as cell-based. As to conditions: read-out: INH.

≈ marks a conversion by molar mass, not a printed value.

One may read the MIC90 as an inhibitory concentration at the 90% level, which refers to growth in some studies and to a panel of isolates in others. A high value points to weaker potency. A word on the MIC99: it is an inhibitory concentration at the 99% level, which refers to growth in some studies and to a panel of isolates in others. A higher MIC99 goes with weaker potency. With `O=c1nc(-c2cc(F)c(Cl)nc2Cl)ss1`, in series [1], the MIC90 is 32 µg/mL (≈ 113 µM) and the MIC99 stood at 4 µg/mL (≈ 14.1 µM). In addition, the cytotoxicity at 48 h, 100 µM in series [2] came out at 24.3%.

As to `O=c1nc(-c2cnccn2)ss1`, in series [1], the MIC90 stood at 32 µg/mL (≈ 162 µM) and the MIC99 turned out to be 16 µg/mL (≈ 81.1 µM). In addition, the cytotoxicity at 48 h, 100 µM in series [2] amounted to 56.7%.

In series [1], `O=c1nc(-c2cccnc2Cl)ss1` returned an MIC90 of 32 µg/mL (≈ 139 µM) and an MIC99 of 16 µg/mL (≈ 69.4 µM). For the same compound, the cytotoxicity at 48 h, 100 µM in series [2] was found to be 34.4%.

In series [1], `O=c1nc(-c2ccc([N+](=O)[O-])cc2Cl)ss1` came in with an MIC90 of 32 µg/mL (≈ 116 µM) and an MIC99 of 16 µg/mL (≈ 58.2 µM). In addition, the cytotoxicity at 48 h, 100 µM in series [2] was 28.6%.

In series [1], `O=c1nc(-c2ccccc2[N+](=O)[O-])ss1` displayed an MIC90 of 16 µg/mL (≈ 66.6 µM) and an MIC99 of 32 µg/mL (≈ 133 µM). Further, in series [2], the cytotoxicity at 48 h, 100 µM came to 33%.

On to `Cc1ccc(-c2nc(=O)ss2)s1`, for which, in series [1], the MIC90 is 16 µg/mL (≈ 74.3 µM) and the MIC99 turned out to be 32 µg/mL (≈ 149 µM). In addition, the cytotoxicity at 48 h, 100 µM in series [2] is 36.3%.

As for `Nc1ccc(-c2nc(=O)ss2)cc1`, in series [1], the MIC90 was found to be 16 µg/mL (≈ 76.1 µM) and the MIC99 turned out to be 32 µg/mL (≈ 152 µM). Also, the cytotoxicity at 48 h, 100 µM in series [2] turned out to be 46.3%.

Regarding `O=c1nc(-c2ccc3ccccc3c2)ss1`, in series [1], the MIC90 was found to be 32 µg/mL (≈ 130 µM) and the MIC99 was found to be 16 µg/mL (≈ 65.2 µM). Moreover, the cytotoxicity at 48 h, 100 µM in series [2] stood at 47.2%.

On to `COc1ccc(OC)c(-c2nc(=O)ss2)c1`, for which, in series [1], the MIC90 is 32 µg/mL (≈ 125 µM) and the MIC99 stood at 32 µg/mL (≈ 125 µM). Besides, the cytotoxicity at 48 h, 100 µM in series [2] amounted to 23.7%.

In series [1], `COc1cccc(-c2nc(=O)ss2)c1` came in with an MIC90 of 16 µg/mL (≈ 71 µM) and an MIC99 of 32 µg/mL (≈ 142 µM). The cytotoxicity at 48 h, 100 µM in series [2] is 38.6%.

In series [1], `Cc1ccccc1-c1nc(=O)ss1` displayed an MIC90 of 16 µg/mL (≈ 76.4 µM) and an MIC99 of 32 µg/mL (≈ 153 µM). For the same compound, in series [2], the cytotoxicity at 48 h, 100 µM came to 18.6%.

In series [1], `O=c1nc(-c2ccc(F)cc2)ss1` displayed an MIC90 of 32 µg/mL (≈ 150 µM) and an MIC99 of 16 µg/mL (≈ 75 µM). The cytotoxicity at 48 h, 100 µM in series [2] amounted to 33.7%.

In series [1], `O=c1nc(-c2ccc(Cl)cc2)ss1` came in with an MIC90 of 64 µg/mL (≈ 279 µM) and an MIC99 of 32 µg/mL (≈ 139 µM). Moreover, in series [2], the cytotoxicity at 48 h, 100 µM came out at 46%.

Take `Cc1sc(-c2nsc(=O)o2)cc1[N+](=O)[O-]`: in series [1], the MIC90 is 2 µg/mL (≈ 8.19 µM) and the MIC99 came out at 1 µg/mL (≈ 4.09 µM). Further, in series [2], the cytotoxicity at 48 h, 100 µM is 53.8%.

For the compound `O=c1oc(-c2cc(F)c(Cl)nc2Cl)ns1`, in series [1], the MIC90 is 16 µg/mL (≈ 59.9 µM) and the MIC99 turned out to be 8 µg/mL (≈ 30 µM). The cytotoxicity at 48 h, 100 µM in series [2] stood at 15.1%.

In series [1], `O=c1oc(-c2cccnc2Cl)ns1` displayed an MIC90 of 8 µg/mL (≈ 37.3 µM) and an MIC99 of 8 µg/mL (≈ 37.3 µM). In addition, in series [2], the cytotoxicity at 48 h, 100 µM came out at 31.4%.

In series [1], `O=c1oc(-c2ccc([N+](=O)[O-])cc2Cl)ns1` came in with an MIC90 of 16 µg/mL (≈ 61.9 µM) and an MIC99 of 16 µg/mL (≈ 61.9 µM). Besides, in series [2], the cytotoxicity at 48 h, 100 µM was 54.6%.

Regarding `O=c1oc(-c2ccccc2[N+](=O)[O-])ns1`, in series [1], the MIC90 was found to be 8 µg/mL (≈ 35.7 µM) and the MIC99 stood at 16 µg/mL (≈ 71.4 µM). In addition, the cytotoxicity at 48 h, 100 µM in series [2] was 32.4%.

For `Cc1ccc(-c2nsc(=O)o2)s1`, in series [1], the MIC90 stood at 8 µg/mL (≈ 40.1 µM) and the MIC99 is 16 µg/mL (≈ 80.3 µM). Also, the cytotoxicity at 48 h, 100 µM in series [2] is 25.1%.

`Nc1ccc(-c2nsc(=O)o2)cc1`: in series [1], the MIC90 came out at 16 µg/mL (≈ 82.4 µM) and the MIC99 stood at 16 µg/mL (≈ 82.4 µM). In addition, in series [2], the cytotoxicity at 48 h, 100 µM amounted to 39.5%.

In series [1], `O=c1oc(-c2ccc3ccccc3c2)ns1` gave an MIC90 of 16 µg/mL (≈ 69.8 µM) and an MIC99 of 16 µg/mL (≈ 69.8 µM). For the same compound, the cytotoxicity at 48 h, 100 µM in series [2] worked out at 26.2%.

On to `COc1ccc(OC)c(-c2nsc(=O)o2)c1`, for which, in series [1], the MIC90 was found to be 16 µg/mL (≈ 66.9 µM) and the MIC99 came to 16 µg/mL (≈ 66.9 µM). The cytotoxicity at 48 h, 100 µM in series [2] was found to be 25.3%.

In series [1], `COc1cccc(-c2nsc(=O)o2)c1` had an MIC90 of 8 µg/mL (≈ 38.2 µM) and an MIC99 of 16 µg/mL (≈ 76.5 µM). In addition, the cytotoxicity at 48 h, 100 µM in series [2] amounted to 15%.

In series [1], `Cc1ccccc1-c1nsc(=O)o1` gave an MIC90 of 8 µg/mL (≈ 41.4 µM) and an MIC99 of 16 µg/mL (≈ 82.8 µM). Also, the cytotoxicity at 48 h, 100 µM in series [2] is 18.1%.

Consider `O=c1oc(-c2ccccc2Cl)ns1`, for which, in series [1], the MIC90 came out at 8 µg/mL (≈ 37.4 µM) and the MIC99 is 8 µg/mL (≈ 37.4 µM). Further, the cytotoxicity at 48 h, 100 µM in series [2] amounted to 20.6%.

In series [1], `O=c1oc(-c2ccc(F)cc2)ns1` came in with an MIC90 of 16 µg/mL (≈ 81.1 µM) and an MIC99 of 16 µg/mL (≈ 81.1 µM). In addition, the cytotoxicity at 48 h, 100 µM in series [2] worked out at 21.7%.

Take `O=c1oc(-c2ccc(Cl)cc2)ns1`: in series [1], the MIC90 stood at 32 µg/mL (≈ 150 µM) and the MIC99 came to 4 µg/mL (≈ 18.7 µM). In addition, the cytotoxicity at 48 h, 100 µM in series [2] came to 39.6%.

In series [1], `O=c1nc(-c2ccccc2Cl)ss1` returned an MIC90 of 8 µg/mL (≈ 34.8 µM) and an MIC99 of 16 µg/mL (≈ 69.7 µM). Also, the cytotoxicity at 48 h, 100 µM in series [2] came out at 40.1%.

Turning to `O=c1oc(-c2cnccn2)ns1`, in series [1], the MIC90 is 16 µg/mL (≈ 88.3 µM) and the MIC99 worked out at 4 µg/mL (≈ 22.1 µM). The cytotoxicity at 48 h, 100 µM in series [2] was 31.4%.

Values taken from ChEMBL document CHEMBL2331501, “3H-1,2,4-Dithiazol-3-one compounds as novel potential affordable antitubercular agents” (Bioorg Med Chem Lett, 2013).
